Here are results for 23 compounds from patent US6407116B1, “Nitrogenous fused-ring compounds, process for the preparation of the same, and drugs” (Takeda Chemical Industries, Inc., priority 1997, dated 2002).

Data set [1] relates to guinea-pig eosinophils. Put plainly: Chemotaxis inhibition assay: LTB4-induced chemotaxis in guinea-pig eosinophils. It is filed as cell-based. The note with it: test substance 1×10^−5 M, LTB4 10^−8 M, 2 hours; for inhibition at 10 µM: Cavia porcellus, Eosinophil. As for the experimental part:
1) Guinea-pig Eosinophil Preparation
Male Hartley guinea-pigs received 2 ml of equine serum (Bio-Whittaker, Inc) intraperitoneally once a week for successive 8 weeks. 48 hours after the last administration, 75 ml of physiological saline was injected into the peritoneal cavity, and the fluid was recovered and centrifuged at 400 G for 5 minutes. […] Erythrocytes in the isolated cell pellet, if any, were removed by hypotonic treatment (suspended in water for 30 seconds).
2) Chemotaxis Inhibition Assay
600 μl of LTB4 suspended in Hanks-Hepes-HSA (final concentration of 10^−8 M, Cascade Biochemical Ltd.) was placed in the lower compartment of a 24-well plate and kept at 37° C. for 30 minutes in a CO2 gas incubator. After mounting a Chemotaxicell (polycarbonate membrane, pore size 3 μm, thickness 10 μm), which served as an upper compartment, on the 24-well plate described above, 200 μl of eosinophil suspension (5×10^6 cells/ml), which had been incubated at 37° C. for 15 minutes in a thermostat chamber, was added to the upper compartment. After allowing to react for 2 hours in the CO2 gas incubator, the Chemotaxicell was removed, and 60 μl of 2% (w/v) EDTA solution in physiological saline was added to the lower compartment. After cooling on ice, the cells which underwent the chemotaxis into the lower compartment were counted using a blood cell counter (Coulter Counter (trade name)). In the procedure described above, the test substance was dissolved in N,N-dimethylformamide (DMF) and added to the upper and lower compartments at the final concentration of 10^−5 M.
% Chemotaxis inhibition=[…] [Equation 2]
The results are shown in [Table 2].

Data set [2] has as its system histamine-induced dermal vascular hyperpermeability. Put plainly: Effect on histamine-induced dermal vascular hyperpermeability in guinea pigs. It is filed as in vivo, guinea pig. The note with it: 3 mg/kg oral administration, 1 hour before intradermal histamine, male Hartley guinea pigs; for inhibition in vivo at 3 mg/kg: Cavia porcellus. As for the experimental part: Effect on Histamine-induced Dermal Vascular Hyperpermeability in Guinea Pigs
Male Hartley guinea pigs (weighing about 500 g) were used. […] After 30 minutes, the animal was hit on its head to make it unconscious, and cut at its neck to sacrifice by exsanguination. The dorsal skin was peeled and examined for the long and short diameters (mm) of each blue spot which were then multiplied to give a product, which was averaged to give a vascular permeability index. Each substance was suspended in 5% gum arabic solution, and given orally in the volume of 0.2 ml/100 g body weight 1 hour before histamine administration. Control animals received the same volume of 5% gum arabic solution. A % inhibition of this reaction was calculated according to [Equation 1].
% Inhibition of histamine-induced dermal vascular hyperpermeability=100×(1-vascular permeability index in treatment group/vascular permeability index in control group) [Equation 1]

Structures can show the parent of a compound that is named as a salt.

What is called inhibition is the drop in the measured response relative to a control, in per cent. What is called melting point is the temperature, or range, at which the solid turns liquid. In turn, `Cl.O=c1[nH]c(=O)n(CCCN2CCC(OC(c3ccccc3)c3ccccc3)CC2)c2ncccc12` [Example 6, 2,4-Dioxo-1-[3-(4-diphenylmethoxypiperidino)propyl]-1,2,3,4-tetrahydropyrido[2,3-d]pyrimidine hydrochloride] returned a melting point of 131 to 133 °C. The inhibition at 10 µM in data set [1] was found to be 67%.

In the case of `O=c1nc2n(CCCCN3CCC(OC(c4ccccc4)c4ccccc4)CC3)ccnc-2c(=O)[nH]1` [Example 8, 2,4-Dioxo-8-[4-(4-diphenylmethoxypiperidino)butyl]-1,2,3,4-tetrahydropteridine], the “Inhibition of histamine-induced dermal vascular hyperpermeability (%)” value in data set [2] was 92%.

In turn, `O=c1[nH]c(=O)n(CCCCN2CCC(OC(c3ccccc3)c3ccccc3)CC2)c2ccc(Cl)cc12` [Example 10, 6-Chloro-2,4-dioxo-1-[4-(4-diphenylmethoxypiperidino)butyl]-1,2,3,4-tetrahydroquinazoline] came in with a melting point of 209 to 210 °C. Also, the inhibition at 10 µM in data set [1] amounted to 50%.

Take `Cc1ccc2c(c1)c(=O)[nH]c(=O)n2CCCCN1CCC(OC(c2ccccc2)c2ccccc2)CC1` [Example 13, 2,4-Dioxo-1-[4-(4-diphenylmethoxypiperidino)butyl]-6-methyl-1,2,3,4-tetrahydroquinazoline]: the melting point was 180 to 182 °C. Further, the inhibition at 10 µM in data set [1] came to 66%.

In general, inhibition in vivo refers to the drop in the measured response relative to a control, in per cent. Low values mean little suppression, high ones strong suppression. Consider `CCOC(=O)CCn1c(=O)c2ccccc2n(CCCCN2CCC(OC(c3ccccc3)c3ccccc3)CC2)c1=O` [Example 17, Ethyl 2,4-dioxo-1-[4-(4-diphenylmethoxypiperidino)butyl]-1,2,3,4-tetrahydroquinazoline-3-propionate hydrochloride], for which testing at 3 mg/kg in data set [2] gave an inhibition in vivo of 91%.

Take `CC(C)(C)n1c(=O)c2ccccc2n(CCCCN2CCC(OC(c3ccccc3)c3ccccc3)CC2)c1=O.Cl` [Example 22, 3-(1,1-Dimethylethyl)-2,4-dioxo-1-[4-(4-diphenylmethoxypiperidino)butyl]-1,2,3,4-tetrahydroquinazoline hydrochloride]: the melting point was 229 to 231 °C. The inhibition at 10 µM in data set [1] worked out at 72%.

Compound `COc1ccc(Cn2c(=O)c3ccccc3n(CCCCN3CCC(OC(c4ccccc4)c4ccccc4)CC3)c2=O)cc1` [Example 26, 2,4-Dioxo-1-[4-(4-diphenylmethoxypiperidino)butyl]-3-(4-methoxybenzyl)-1,2,3,4-tetrahydroquinazoline] had a melting point of 99 to 100 °C. In data set [1], the inhibition at 10 µM was 50%.

The compound `CCOC(=O)C(C)(C)n1c(=O)c2cc(Cl)ccc2n(CCCCN2CCC(OC(c3ccccc3)c3ccccc3)CC2)c1=O` [Example 35, Ethyl 2-[6-chloro-1-[4-(4-diphenylmethoxypiperidino)butyl]-2,4-dioxo-1,2,3,4-tetrahydroquinazolin-3-yl]isobutyrate hydrochloride] had an inhibition in vivo at 3 mg/kg in data set [2] of 87%.

On to `O=C(O)CCCn1c(=O)c2ccccc2n(CCCCN2CCC(OC(c3ccccc3)c3ccccc3)CC2)c1=O` [Example 53, 2,4-Dioxo-1-[4-(4-diphenylmethoxypiperidino)butyl]-1,2,3,4-tetrahydroquinazoline-3-butyric acid], for which 3 mg/kg produced 90% inhibition in vivo in data set [2].

Compound `O=c1c2ccccc2n(CCCCN2CCC(OC(c3ccccc3)c3ccccc3)CC2)c(=O)n1CCO` [Example 55, 2,4-Dioxo-1-[4-(4-diphenylmethoxypiperidino)butyl]-3-(2-hydroxyethyl)-1,2,3,4-tetrahydroquinazoline] came in with a melting point of 145 to 150 °C. Also, in data set [1], the inhibition at 10 µM was found to be 64%.

On to `CN(CCc1ccccc1)C(=O)Cn1c(=O)c2ccccc2n(CCCCN2CCC(OC(c3ccccc3)c3ccccc3)CC2)c1=O.Cl` [Example 56, 2,4-Dioxo-1-[4-(4-diphenylmethoxypiperidino)butyl]-N-methyl-N-(2-phenethyl)-1,2,3,4-tetrahydroquinazoline-3-acetamide hydrochloride], for which, in data set [1], the “Inhibition (%) of LTB4-induced chemotaxis” value is 73%.

Regarding `O=c1c2ccccc2n(CCCCN2CCC(OC(c3ccccc3)c3ccccc3)CC2)c(=O)n1CCCc1ccccc1` [Example 58, 2,4-Dioxo-1-[4-(4-diphenylmethoxypiperidino)butyl]-3-(3-phenylpropyl)-1,2,3,4-tetrahydroquinazoline hydrochloride], the inhibition at 10 µM in data set [1] was 84%.

As to `COC(=O)COC(=O)Cn1c(=O)c2ccccc2n(CCCCN2CCC(OC(c3ccccc3)c3ccccc3)CC2)c1=O` [Example 69, Methoxycarbonylmethyl 2,4-dioxo-1-[4-(4-diphenylmethoxypiperidino)butyl]-1,2,3,4-tetrahydroquinazoline-3-acetate hydrochloride], the inhibition at 10 µM in data set [1] stood at 96%.

For the compound `COC(=O)Cc1ccc2c(c1)c(=O)[nH]c(=O)n2CCCCN1CCC(OC(c2ccccc2)c2ccccc2)CC1` [Example 86, Methyl 2,4-dioxo-1-[4-(4-diphenylmethoxypiperidino)butyl]-1,2,3,4-tetrahydroquinazoline-6-acetate], the inhibition at 10 µM in data set [1] worked out at 55%.

Turning to `COC(=O)C1(n2c(=O)c3ccccc3n(CCCCN3CCC(OC(c4ccccc4)c4ccccc4)CC3)c2=O)CCCCC1` [Example 97, Methyl 1-[2,4-dioxo-1-[4-(4-diphenylmethoxypiperidino)butyl]-1,2,3,4-tetrahydroquinazolin-3-yl]-1-cyclohexylcarboxylate hydrochloride], the inhibition at 10 µM in data set [1] was 62%.

`O=C(O)CCCCCn1c(=O)c2ccccc2n(CCCCN2CCC(OC(c3ccccc3)c3ccccc3)CC2)c1=O` [Example 98, 2,4-Dioxo-1-[4-(4-diphenylmethoxypiperidino)butyl]-1,2,3,4-tetrahydroquinazoline-3-hexanoic acid]: the melting point is 155 to 157 °C. For the same compound, the inhibition at 10 µM in data set [1] was found to be 50%.

`O=C(O)CCCCn1c(=O)c2cc(F)ccc2n(CCCCN2CCC(OC(c3ccccc3)c3ccccc3)CC2)c1=O` [Example 101, 2,4-Dioxo-1-[4-(4-diphenylmethoxypiperidino)butyl]-6-fluoro-1,2,3,4-tetrahydroquinazoline-3-valeric acid]: the inhibition at 10 µM in data set [1] is 50%.

For the compound `COC(=O)CNC(=O)Cn1c(=O)c2ccccc2n(CCCCN2CCC(OC(c3ccccc3)c3ccccc3)CC2)c1=O` [Example 109, 2,4-Dioxo-1-[4-(4-diphenylmethoxypiperidino)butyl]-N-methoxycarbonylmethyl-1,2,3,4-tetrahydroquinazoline-3-acetamide hydrochloride], the inhibition at 10 µM in data set [1] worked out at 55%.

As for `CCOC(=O)CN(C)C(=O)Cn1c(=O)c2ccccc2n(CCCCN2CCC(OC(c3ccccc3)c3ccccc3)CC2)c1=O.Cl` [Example 110, 2,4-Dioxo-1-[4-(4-diphenylmethoxypiperidino)butyl]-N-ethoxycarbonylmethyl-N-methyl-1,2,3,4-tetrahydroquinazoline-3-acetamide hydrochloride], the melting point fell in the range of 170 to 172 °C. Moreover, the inhibition at 10 µM in data set [1] was 122%.

Compound `CCOC(=O)CCNC(=O)Cn1c(=O)c2ccccc2n(CCCCN2CCC(OC(c3ccccc3)c3ccccc3)CC2)c1=O.Cl` [Example 111, 2,4-Dioxo-1-[4-(4-diphenylmethoxypiperidino)butyl]-N-(2-ethoxycarbonylethyl)-1,2,3,4-tetrahydroquinazoline-3-acetamide hydrochloride] displayed a melting point of 123 to 124 °C. Moreover, the inhibition at 10 µM in data set [1] amounted to 80%.

Take `CN(CC(=O)O)C(=O)Cn1c(=O)c2ccccc2n(CCCCN2CCC(OC(c3ccccc3)c3ccccc3)CC2)c1=O` [Example 114, N-Carboxylmethyl-2,4-dioxo-1-[4-(4-diphenylmethoxypiperidino)butyl]-N-methyl-1,2,3,4-tetrahydroquinazoline-3-acetamide]: the inhibition at 10 µM in data set [1] came out at 54%.

For the compound `O=C(O)CNC(=O)CCn1c(=O)c2ccccc2n(CCCCN2CCC(OC(c3ccccc3)c3ccccc3)CC2)c1=O` [Example 116, N-Carboxylmethyl-2,4-dioxo-1-[4-(4-diphenylmethoxypiperidino)butyl]-1,2,3,4-tetrahydroquinazoline-3-propionamide hydrochloride], the inhibition at 10 µM in data set [1] is 52%.

“N-(2-Carboxylethyl)-carboxylmethyl-2,4-dioxo-1-[4-(4-diphenylmethoxypiperidino)butyl]-N-methyl-1,2,3,4-tetrahydroquinazoline-3-acetamide [Example 115]”: in data set [1], the “Inhibition (%) of LTB4-induced chemotaxis” value is 56%.
